US12145923B2, “Tetrahydroisoquinoline compound, preparation method therefor, pharmaceutical composition containing same, and use thereof” (SHANGHAI INSTITUTE OF MATERIA MEDICA, CHINESE ACADEMY OF …, priority 2018, dated 2024)
pIC50: −log10 of the molar value. Read-outs that look alike come from different tables or passages of the source.

Legend:
TNF-α secretion in PBMC = experiment: Inhibition of LPS-stimulated TNF-α secretion in PBMC (ELISA); assay type: cell-based; settings: Homo sapiens; for inhibition at 1 µM / inhibition at 10 µM: read-out: Inhibition rate %
RAW 264.7 cells = experiment: Cytotoxicity on RAW 264.7 cells (CCK-8 method); assay type: cell-based, mouse
Procedure: Mouse RAW 264.7 cells were purchased from American Type Culture Collection (Manassas, VA, USA), and cultivated in DMEM culture medium (Hyclone, South Logan, UT, USA) containing 10% fetal bovine serum (Hyclone, South Logan, UT, USA). Cells were collected and counted before use, and inoculated in a 96-well plate (Corning, NY, USA) at 1×10^5/well. […] 20 μl of CCK-8 solution (Dojindo, Kumamoto, Japan) was added at 30 min before the end of the culture. After the cultivation was ended, the absorbance OD value was measured at 450 nm (reference 650 nm) on amicroplate reader (Molecular Devices, Sunnyvale, CA, USA). The toxicity of the compound on RAW 264.7 cells was calculated by dividing the OD value of the test sample by the OD value of the cell control well, which was labeled as the cell survival rate M %.

[1] = biological target: Human PDE4D catalytic domain (Homo sapiens (Human), UniProt Q08499); experiment: Scintillation Proximity Assay (SPA), inhibition of PDE4D catalytic domain activity; assay type: biochemical; settings: for inhibition at 1 µM: read-out: PDE4D enzyme activity inhibition rate %
Sequence of Human PDE4D catalytic domain (Q08499 386-715): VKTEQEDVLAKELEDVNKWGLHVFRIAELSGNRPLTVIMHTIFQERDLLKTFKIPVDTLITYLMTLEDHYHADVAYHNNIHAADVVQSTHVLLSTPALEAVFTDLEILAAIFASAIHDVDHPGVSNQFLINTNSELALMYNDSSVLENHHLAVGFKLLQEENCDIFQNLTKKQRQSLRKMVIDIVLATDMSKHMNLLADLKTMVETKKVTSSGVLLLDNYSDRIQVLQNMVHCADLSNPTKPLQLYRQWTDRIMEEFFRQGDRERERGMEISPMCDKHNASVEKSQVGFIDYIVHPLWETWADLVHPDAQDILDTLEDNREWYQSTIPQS

[2] = tested on: tumor necrosis factor-α secretion in RAW 264.7 cells; experiment: Inhibition of LPS-stimulated tumor necrosis factor-α secretion in RAW 264.7 cells (ELISA); assay type: cell-based, mouse; settings: Mus musculus, RAW264.7, 4 h, read-out: Tumor necrosis factor-α inhibition rate/%

With COc1cc2c(cc1OC)C(CCc1c[nH]c3ccccc13)N(C(=O)c1ccncc1)CC2 (stereo not shown) [Compound B1] the inhibition at 1 µM (TNF-α secretion in PBMC; TNF-α secretion in PBMC, 1 μM) was 39.8%, the inhibition at 10 µM (TNF-α secretion in PBMC; TNF-α secretion in PBMC, 10 μM) was 58.5% and the Cell survival rate/% (RAW 264.7 cells; RAW 264.7, 0.5 μM) was 78%. For the same compound, the Cell survival rate/% (RAW 264.7 cells; RAW 264.7, 5 μM) was 74.9%, the Cell survival rate/% (RAW 264.7 cells; RAW 264.7, 50 μM) was 78.8% and the inhibition at 1 µM ([1]; Compound concentration: 1 μM) was 30.7%. The inhibition at 0.5 µM ([2]; RAW 264.7, 0.5 μM) was -2.4%, the inhibition at 5 µM ([2]; RAW 264.7, 5 μM) was -17.8% and the inhibition at 50 µM ([2]; RAW 264.7, 50 μM) was 67.9%.

In the case of COCC(=O)N1CCc2cc(OC)c(OC)cc2C1CCc1c[nH]c2ccccc12 (stereo not shown) [Compound B4, 1-(1-(2-(1H-indol-3-yl)ethyl)-6,7-dimethoxy-3,4-dihydroisoquinoline-2(1H)-yl)-2-methoxyethane-1-one], the inhibition at 1 µM (TNF-α secretion in PBMC; TNF-α secretion in PBMC, 1 μM) was 44.1%, the inhibition at 10 µM (TNF-α secretion in PBMC; TNF-α secretion in PBMC, 10 μM) was 89.1% and the pIC50 (TNF-α secretion in PBMC; TNF-α secretion in PBMC, read-out: IC50) was 5.10. The Cell survival rate/% (RAW 264.7 cells; RAW 264.7, 0.5 μM) was 116.6%, the Cell survival rate/% (RAW 264.7 cells; RAW 264.7, 5 μM) was 82.7% and the Cell survival rate/% (RAW 264.7 cells; RAW 264.7, 50 μM) was 71.5%. The inhibition at 1 µM ([1]; Compound concentration: 1 μM) was 82.6%, the IC50 ([1]; PDE4D, unit given as mM, read-out: IC50) was 0.0003 mM and the inhibition at 0.5 µM ([2]; RAW 264.7, 0.5 μM) was -9.2%. It also gave an inhibition at 5 µM ([2]; RAW 264.7, 5 μM) of -11% and an inhibition at 50 µM ([2]; RAW 264.7, 50 μM) of 54.5%.

With COc1cc2c(cc1OC1CCCC1)C(CCc1c[nH]c3ccc(Br)cc13)N(C=O)CC2 (stereo not shown) [Compound C1, 1-(2-(5-bromo-1H-indol-3-yl)ethyl)-7-(cyclopentyloxy)-6-methoxy-3,4-dihydroisoquinoline-2(1H)-formaldehyde] the inhibition at 1 µM (TNF-α secretion in PBMC; PBMC) was 27.1%, the inhibition at 10 µM (TNF-α secretion in PBMC; PBMC) was 72.4% and the Cell survival rate/% (RAW 264.7 cells; RAW 264.7, 0.5 μM) was 100.9%. For the same compound, the Cell survival rate/% (RAW 264.7 cells; RAW 264.7, 5 μM) was 125.1%, the Cell survival rate/% (RAW 264.7 cells; RAW 264.7, 50 μM) was 110.5% and the pIC50 [1] was 5.82. It also gave an inhibition at 1 µM [1] of 26.4%, an inhibition at 0.5 µM [2] of 2.8% and an inhibition at 5 µM [2] of -5.2%. The inhibition at 50 µM [2] was 33.7%.

For COc1cc2c(cc1OC)[C@H](CCc1c[nH]c3ccccc13)N(C(=O)C(F)(F)F)CC2 [(S)-B10, (S)-1-(1-(2-(1H-indol-3-yl)ethyl)-6,7-dimethoxy-3,4-dihydroisoquinoline-2(1H)-yl)-2,2,2-trifluoroethane-1-one], the inhibition at 1 µM (TNF-α secretion in PBMC; TNF-α secretion in PBMC, 1 μM) was 19.9%, the inhibition at 10 µM (TNF-α secretion in PBMC; TNF-α secretion in PBMC, 10 μM) was 59.6% and the Cell survival rate/% (RAW 264.7 cells; RAW 264.7, 0.5 μM) was 89.2%. It also gave a Cell survival rate/% (RAW 264.7 cells; RAW 264.7, 5 μM) of 84.9%, a Cell survival rate/% (RAW 264.7 cells; RAW 264.7, 50 μM) of 93.8% and an inhibition at 1 µM ([1]; Compound concentration: 1 μM) of 29.5%. The inhibition at 0.5 µM ([2]; RAW 264.7, 0.5 μM) was -3%, the inhibition at 5 µM ([2]; RAW 264.7, 5 μM) was -27.9% and the inhibition at 50 µM ([2]; RAW 264.7, 50 μM) was 33.7%.

Compound COc1cc2c(cc1OC1CCCC1)C(CCc1c[nH]c3cc(C)ccc13)N(C=O)CC2 (stereo not shown) [Compound C3, 7-(cyclopentyloxy)-6-methoxy-1-(2-(6-methyl-1H-indol-3-yl)ethyl)-3,4-dihydroisoquinoline-2(1H)-formaldehyde] has an inhibition at 10 µM (TNF-α secretion in PBMC; TNF-α secretion in PBMC, 10 μM) of 36.4%, a Cell survival rate/% (RAW 264.7 cells; RAW 264.7, 0.5 μM) of 115.1% and a Cell survival rate/% (RAW 264.7 cells; RAW 264.7, 5 μM) of 120.5%. It also gave a Cell survival rate/% (RAW 264.7 cells; RAW 264.7, 50 μM) of 112.6%, an inhibition at 1 µM ([1]; Compound concentration: 1 μM) of 6.4% and an inhibition at 0.5 µM ([2]; RAW 264.7, 0.5 μM) of -0.9%. For the same compound, the inhibition at 5 µM ([2]; RAW 264.7, 5 μM) was 5.9% and the inhibition at 50 µM ([2]; RAW 264.7, 50 μM) was 59.7%.

With COc1cc2c(cc1OC1CCCC1)C(CCc1c[nH]c3ccc(C)cc13)N(C=O)CC2 (stereo not shown) [Compound C2, 7-(cyclopentyloxy)-6-methoxy-1-(2-(5-methyl-1H-indol-3-yl)ethyl)-3,4-dihydroisoquinoline-2(1H)-formaldehyde] the inhibition at 1 µM (TNF-α secretion in PBMC; TNF-α secretion in PBMC, 1 μM) was 15.8%, the inhibition at 10 µM (TNF-α secretion in PBMC; TNF-α secretion in PBMC, 10 μM) was 52.4% and the Cell survival rate/% (RAW 264.7 cells; RAW 264.7, 0.5 μM) was 112.4%. The Cell survival rate/% (RAW 264.7 cells; RAW 264.7, 5 μM) was 106.3%, the Cell survival rate/% (RAW 264.7 cells; RAW 264.7, 50 μM) was 62.7% and the inhibition at 1 µM ([1]; Compound concentration: 1 μM) was 21.5%. It also gave an inhibition at 0.5 µM ([2]; RAW 264.7, 0.5 μM) of -18.2%, an inhibition at 5 µM ([2]; RAW 264.7, 5 μM) of -24.5% and an inhibition at 50 µM ([2]; RAW 264.7, 50 μM) of 97.2%.

For COCCN1CCc2cc(OC)c(OC)cc2C1CCc1c[nH]c2ccccc12 (stereo not shown) [Compound B2, 1-(2-(1H-indol-3-yl)ethyl)-6,7-dimethoxy-2-(2-methoxyethyl)-1,2,3,4-tetrahydroisoquinoline], the inhibition at 10 µM (TNF-α secretion in PBMC; TNF-α secretion in PBMC, 10 μM) was 25.7%, the Cell survival rate/% (RAW 264.7 cells; RAW 264.7, 0.5 μM) was 88.3% and the Cell survival rate/% (RAW 264.7 cells; RAW 264.7, 5 μM) was 83.5%. The Cell survival rate/% (RAW 264.7 cells; RAW 264.7, 50 μM) was 71.4%, the inhibition at 1 µM ([1]; Compound concentration: 1 μM) was 19.2% and the inhibition at 0.5 µM ([2]; RAW 264.7, 0.5 μM) was 6.2%. The inhibition at 5 µM ([2]; RAW 264.7, 5 μM) was 18.8% and the inhibition at 50 µM ([2]; RAW 264.7, 50 μM) was 83.9%.
